We go through twelve compounds from US11505575B2, “Cyclic polypeptides for PCSK9 inhibition” (Merck Sharp & Dohme LLC, priority 2018, dated 2022).

One may read the IC50 as the midpoint of a concentration-inhibition curve.

What all share (assay type): binding
Experiment [1] deals with T1, PCSK9 (Homo sapiens, UniProt Q8NBP7).
T1 construct: biotin (biotinylated)
The experiment is described as follows: PCSK9 Alexa FRET Plus assay (displacement of AlexaFluor647-tagged cyclic peptide Reagent B). To be noted: 0.5 nM PCSK9, 960 nM AF cyclic peptide Reagent B. As for the experimental part:
A solution containing 1 nM biotinylated PCSK9+2.5 nM Lance Streptavidin Europium (Strep-Eu) was made in 50 mM HEPES pH 7.4, 0.15 M NaCl, 5 mM CaCl2, 0.01% BSA, and 0.01% Surfactant P20. A separate solution containing 1920 nM of the AlexaFluor tagged cyclic peptide was made in the same buffer system. An Echo was used to transfer 0.075 ul of compound plus 0.675 ul of DMSO to each well of an assay plate followed by the addition of 15 ul of PCSK9+Stept-Eu and 15 ul of AF peptide. The final assay volume was 30.750 ul containing 0.5 nM PCSK9, 1.25 nM Strep-Eu, and 960 nM AF cyclic peptide. The reaction was incubated at room temperature for at least two hours prior to fluorescence measurements using an Envision Multilabel Reader. IC50 values were determined by fitting data to a sigmoidal dose-response curve using nonlinear regression. Ki was then calculated from the IC50 and the KD of AF cyclic peptide. Counts (B-counts) of the europium-labeled PCSK9 were followed to observe if compounds were adversely affecting PCSK9. A fall off of the B-counts likely indicated a false positive of inhibition. Data from this procedure was reported as “P=‘numerical value’ (nanomolar)”

The target of experiment [2] is human PCSK9 / human LDLR EGFa domain interaction (Homo sapiens, UniProt Q8NBP7). The experiment in a line: TR-FRET assay of inhibition of the PCSK9-LDLR protein-protein interaction. As to conditions: 20 nM biotinylated human PCSK9 + 20 nM his-tagged human LDLR EGFa domain, 2 hours room temperature. An outline of the steps:
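Biotinylated human PCSK9 (20 nM) and His-tagged human LDLR EGFa domain (20 nM) incubated with Ulight-streptavidin and Eu-anti-His (5 nM each), 2 h at room temperature, in HEPES pH buffer with 5 mM CaCl2. TR-FRET read-out; IC50 from 4-parameter fit of dose-response.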
For orientation: Time-resolved FRET reads energy transfer from a long-lived donor to a nearby acceptor.

In experiment [3] the target is T1, PCSK9. The experiment is described as follows: PCSK9 Alexa FRET Standard assay (displacement of AlexaFluor647-tagged cyclic peptide Reagent A). To be noted: 0.5 nM PCSK9, 20 nM AF cyclic peptide Reagent A. As for the experimental part:
A solution containing 1 nM biotinylated PCSK9+2.5 nM Lance Streptavidin Europium (Strep-Eu) was made in 50 mM HEPES pH 7.4, 0.15 M NaCl, 5 mM CaCl2, 0.01% BSA, and 0.01% Surfactant P20. A separate solution containing 40 nM of the AlexaFluor tagged cyclic peptide was made in the same buffer system. An Echo was used to transfer 0.750 ul of compound to an assay plate followed by the addition of 15 ul of PCSK9+Stept-Eu and 15 ul of AF peptide. The final assay volume was 30.750 ul containing 0.5 nM PCSK9, 1.25 nM Strep-Eu, and 20 nM AF cyclic peptide. The reaction was incubated at room temperature for at least two hours prior to fluorescence measurements using an Envision Multilabel Reader. IC50 values were determined by fitting data to a sigmoidal dose-response curve using nonlinear regression. Ki was then calculated from the IC50 and the KD of AF cyclic peptide. Counts (B-counts) of the europium-labeled PCSK9 were followed to observe if compounds were […]. A fall off of the B-counts likely indicated a false positive of inhibition. Data from this procedure was reported as “A=‘numerical value’ (nanomolar)”

The structures appear in SMILES notation. *1 amine or outer side, *2 acyl side, *3 side chain or, on linkers, in order; H or OH if unused. Where a SMILES comes first, the peptide text is derived from it. Bridges are numbered along the chain shown (N, C = ends). [ ]: non-standard residue; d: D form. The star is where a group is joined. ξ: configuration not given here. Phe(3-CF3) = N[C@@H](Cc1cccc(C(F)(F)F)c1)C(=O)O; Trp(5-F) = N[C@@H](Cc1c[nH]c2ccc(F)cc12)C(=O)O; Trp(7-aza) = N[C@@H](Cc1c[nH]c2ncccc12)C(=O)O; pY = N[C@@H](Cc1ccc(OP(=O)(O)O)cc1)C(=O)O; pT = C[C@@H](OP(=O)(O)O)[C@H](N)C(=O)O; mXylylene = c1cc(C[*:1])cc(C[*:2])c1; pS = N[C@@H](COP(=O)(O)O)C(=O)O; aThr = C[C@H](O)[C@H](N)C(=O)O; Tle = CC(C)(C)[C@H](N)C(=O)O; αMeV = CC(C)[C@](C)(N)C(=O)O; αMeS = C[C@](N)(CO)C(=O)O; Api = NC1(C(=O)O)CCNCC1; ξαMeS = CC(N)(CO)C(=O)O; Aib = CC(C)(N)C(=O)O; Mpa = O=C(O)CCS; X5 = COCC*

T1 sequence (Q8NBP7 153-692): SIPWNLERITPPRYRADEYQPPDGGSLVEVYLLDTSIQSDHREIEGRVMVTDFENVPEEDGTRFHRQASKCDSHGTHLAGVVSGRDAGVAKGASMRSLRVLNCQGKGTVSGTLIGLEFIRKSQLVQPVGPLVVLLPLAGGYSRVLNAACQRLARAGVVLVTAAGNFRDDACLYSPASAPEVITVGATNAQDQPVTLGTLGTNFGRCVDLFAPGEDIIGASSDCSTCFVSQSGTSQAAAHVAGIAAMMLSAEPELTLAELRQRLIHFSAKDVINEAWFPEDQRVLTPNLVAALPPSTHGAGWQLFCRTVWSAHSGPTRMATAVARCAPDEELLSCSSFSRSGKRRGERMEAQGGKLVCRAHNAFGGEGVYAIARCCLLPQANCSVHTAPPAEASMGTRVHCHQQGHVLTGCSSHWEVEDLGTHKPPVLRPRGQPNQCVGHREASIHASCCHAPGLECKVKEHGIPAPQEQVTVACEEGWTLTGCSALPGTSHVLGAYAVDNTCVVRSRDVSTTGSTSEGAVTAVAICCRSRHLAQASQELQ
human PCSK9 / human LDLR EGFa domain interaction, sequence (Q8NBP7 153-692): as above
human PCSK9 / human LDLR EGFa domain interaction, sequence (Q8NBP7 31-152 partner limits assumed): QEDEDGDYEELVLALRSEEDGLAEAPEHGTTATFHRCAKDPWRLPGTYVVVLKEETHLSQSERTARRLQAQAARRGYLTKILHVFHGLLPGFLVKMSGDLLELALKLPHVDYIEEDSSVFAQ

Take `CC1O[C@@H](C)[C@@H]2NC(=O)[C@@]1(C)NC(=O)[C@H](Cc1ccc(OP(=O)(O)O)cc1)NC(=O)[C@H](C)NC(=O)C(C)(C)NC(=O)[C@H](Cc1c[nH]c3ncccc13)NC(=O)[C@H]([C@@H](C)O)NC(=O)[C@@H]1CCCN1C(=O)[C@H](Cc1ccc(O)cc1)NC(=O)[C@H](C(C)(C)C)NC(=O)CCSCc1cccc(c1)CSC[C@@H](C(N)=O)NC2=O` (stereo partly drawn) [Compound 014]: the IC50 in experiment [1], in experiment [2] and in experiment [3] was 0.001 to 0.1 µM in each case.
For `CC(C)[C@]1(C)NC(=O)[C@H](Cc2ccc(O)cc2)NC(=O)[C@H](C)NC(=O)C(C)(C)NC(=O)[C@H](Cc2c[nH]c3ncccc23)NC(=O)[C@H]([C@@H](C)O)NC(=O)[C@@H]2CCCN2C(=O)[C@H](Cc2ccc(O)cc2)NC(=O)[C@H](C(C)(C)C)NC(=O)CCSCc2cccc(c2)CSC[C@@H](C(N)=O)NC(=O)[C@H]([C@@H](C)OP(=O)(O)O)NC1=O` [Compound 015] ([Mpa][Tle]YPT[Trp(7-aza)][Aib]AY[αMeV][pT]C-NH2; linker 1-12 via mXylylene), the IC50 in experiment [1], in experiment [2] and in experiment [3] was 0.001 to 0.1 µM throughout.
For `CC(C)[C@]1(C)NC(=O)[C@H](Cc2ccc(O)cc2)NC(=O)[C@H](C)NC(=O)C(C)(C)NC(=O)[C@H](Cc2c[nH]c3ncccc23)NC(=O)[C@H]([C@@H](C)O)NC(=O)[C@@H]2CCCN2C(=O)[C@H](Cc2ccc(O)cc2)NC(=O)[C@H](C(C)(C)C)NC(=O)CCSCc2cccc(c2)CSC[C@@H](C(N)=O)NC(=O)[C@H](COP(=O)(O)O)NC1=O` [Compound 016] ([Mpa][Tle]YPT[Trp(7-aza)][Aib]AY[αMeV][pS]C-NH2; linker 1-12 via mXylylene), the half-inhibitory concentration (IC50) in experiment [1], in experiment [2] and in experiment [3] was 0.001 to 0.1 µM throughout.
With `CC(=O)N[C@H]1CSCc2cccc(c2)CSC[C@H](C(N)=O)NC(=O)[C@H]([C@@H](C)O)NC(=O)[C@](C)(C(C)C)NC(=O)[C@H](Cc2ccc(O)cc2)NC(=O)[C@H](C)NC(=O)[C@](C)(CO)NC(=O)[C@H](Cc2c[nH]c3ncccc23)NC(=O)[C@H]([C@@H](C)O)NC(=O)[C@@H]2CCCN2C(=O)[C@H](Cc2ccc(O)cc2)NC(=O)[C@H](C(C)(C)C)NC1=O` [Compound 031] (Ac-C[Tle]YPT[Trp(7-aza)][αMeS]AY[αMeV]T[dC]-NH2; linker 1-12 via mXylylene), the IC50 in experiment [1] and in experiment [3] was 0.001 to 0.1 µM throughout.
Turning to `CC(C)[C@](C)(NC(=O)[C@H](Cc1ccc(O)cc1)NC(=O)[C@H](C)NC(=O)C(C)(C)NC(=O)[C@H](Cc1c[nH]c2ncccc12)NC(=O)[C@@H](NC(=O)[C@@H]1CCCN1C(=O)[C@@H]1Cc2ccc(O)c(c2)CCCC[C@H](N)C(=O)N[C@@H](C(C)(C)C)C(=O)N1)[C@@H](C)O)C(N)=O` [Compound 032], the IC50 in experiment [1] and in experiment [3] was 0.001 to 0.1 µM throughout.
Turning to `CC(=O)N[C@H]1CSCc2cccc(c2)CSC[C@H](C(N)=O)NC(=O)[C@H]([C@@H](C)O)NC(=O)[C@](C)(C(C)C)NC(=O)[C@H](Cc2ccc(O)cc2)NC(=O)[C@H](C)NC(=O)C2(CCNCC2)NC(=O)[C@H](Cc2c[nH]c3ncccc23)NC(=O)[C@H]([C@@H](C)O)NC(=O)[C@@H]2CCCN2C(=O)[C@H](Cc2ccc(O)cc2)NC(=O)[C@H](C(C)(C)C)NC1=O` [Compound 034] (Ac-C[Tle]YPT[Trp(7-aza)][Api]AY[αMeV]T[dC]-NH2; linker 1-12 via mXylylene), the IC50 in experiment [1] and in experiment [3] was 0.001 to 0.1 µM throughout.
Regarding `COCC1(C)NC(=O)[C@H](Cc2c[nH]c3ncccc23)NC(=O)[C@H]([C@@H](C)O)NC(=O)[C@@H]2CCCN2C(=O)[C@H](Cc2ccc(O)cc2)NC(=O)[C@H](C(C)(C)C)NC(=O)[C@@H](NC(C)=O)CSCc2cccc(c2)CSC[C@H](C(N)=O)NC(=O)[C@H]([C@@H](C)O)NC(=O)[C@](C)(C(C)C)NC(=O)[C@H](Cc2ccc(O)cc2)NC(=O)[C@H](C)NC1=O` (stereo partly drawn) [Compound 035] (Ac-C[Tle]YPT[Trp(7-aza)][ξαMeS](Me)AY[αMeV]T[dC]-NH2; linker 1-12 via mXylylene), the IC50 fell in the range of 0.1 to 0.5 µM in experiment [1] and 0.1 to 1 µM in experiment [3].
Take `COCCOCC1(C)NC(=O)[C@H](Cc2c[nH]c3ncccc23)NC(=O)[C@H]([C@@H](C)O)NC(=O)[C@@H]2CCCN2C(=O)[C@H](Cc2ccc(O)cc2)NC(=O)[C@H](C(C)(C)C)NC(=O)[C@@H](NC(C)=O)CSCc2cccc(c2)CSC[C@H](C(N)=O)NC(=O)[C@H]([C@@H](C)O)NC(=O)[C@](C)(C(C)C)NC(=O)[C@H](Cc2ccc(O)cc2)NC(=O)[C@H](C)NC1=O` (stereo partly drawn) [Compound 036] (Ac-C[Tle]YPT[Trp(7-aza)][ξαMeS](X5)AY[αMeV]T[dC]-NH2; linker 1-12 via mXylylene): the IC50 in experiment [1] and in experiment [3] was 0.001 to 0.1 µM each time.
For `CC(=O)N[C@H]1CSCc2cccc(c2)CSC[C@H](C(N)=O)NC(=O)[C@H]([C@H](C)O)NC(=O)[C@](C)(C(C)C)NC(=O)[C@H](Cc2ccc(OP(=O)(O)O)cc2)NC(=O)[C@H](C)NC(=O)C(C)(C)NC(=O)[C@H](Cc2c[nH]c3ncccc23)NC(=O)[C@H]([C@@H](C)O)NC(=O)[C@@H]2CCCN2C(=O)[C@H](Cc2ccc(O)cc2)NC(=O)[C@H](C(C)(C)C)NC1=O` [Compound 039] (Ac-C[Tle]YPT[Trp(7-aza)][Aib]A[pY][αMeV][aThr][dC]-NH2; linker 1-12 via mXylylene), the IC50 in experiment [1] fell in the range of 0.001 to 0.1 µM; in experiment [3] it was 0.1 to 1 µM.
For `CC(=O)N[C@H]1CSCc2cccc(c2)CSC[C@H](C(N)=O)NC(=O)[C@H]([C@H](C)O)NC(=O)[C@](C)(C(C)C)NC(=O)[C@H](Cc2ccc(O)cc2)NC(=O)[C@H](C)NC(=O)C(C)(C)NC(=O)[C@H](Cc2c[nH]c3ncccc23)NC(=O)[C@H]([C@@H](C)O)NC(=O)[C@@H]2CCCN2C(=O)[C@H](Cc2ccccc2)NC(=O)[C@H](C(C)(C)C)NC1=O` [Compound 040] (Ac-C[Tle]FPT[Trp(7-aza)][Aib]AY[αMeV][aThr][dC]-NH2; linker 1-12 via mXylylene), the IC50 in experiment [1] and in experiment [3] was 0.001 to 0.1 µM throughout.
As for `CC(=O)N[C@H]1CSCc2cccc(c2)CSC[C@H](C(N)=O)NC(=O)[C@H]([C@H](C)O)NC(=O)[C@](C)(C(C)C)NC(=O)[C@H](Cc2ccc(O)cc2)NC(=O)[C@H](C)NC(=O)C(C)(C)NC(=O)[C@H](Cc2c[nH]c3ncccc23)NC(=O)[C@H]([C@@H](C)O)NC(=O)[C@@H]2CCCN2C(=O)[C@H](Cc2cccc(C(F)(F)F)c2)NC(=O)[C@H](C(C)(C)C)NC1=O` [Compound 041] (Ac-C[Tle][Phe(3-CF3)]PT[Trp(7-aza)][Aib]AY[αMeV][aThr][dC]-NH2; linker 1-12 via mXylylene), the IC50 in experiment [1] was in the range of 0.5 to 5 µM; in experiment [3], 21 to 50 µM.
`CC(=O)N[C@H]1CSCc2cccc(c2)CSC[C@H](C(N)=O)NC(=O)[C@H]([C@H](C)O)NC(=O)[C@](C)(C(C)C)NC(=O)[C@H](Cc2ccc(O)cc2)NC(=O)[C@H](C)NC(=O)C(C)(C)NC(=O)[C@H](Cc2c[nH]c3ncccc23)NC(=O)[C@H]([C@@H](C)O)NC(=O)[C@@H]2CCCN2C(=O)[C@H](Cc2c[nH]c3ccc(F)cc23)NC(=O)[C@H](C(C)(C)C)NC1=O` [Compound 042] (Ac-C[Tle][Trp(5-F)]PT[Trp(7-aza)][Aib]AY[αMeV][aThr][dC]-NH2; linker 1-12 via mXylylene): the IC50 in experiment [1] and in experiment [3] was 0.001 to 0.1 µM in each case.
